Assays:
surinam grass = assay: Test B pre/postemergence surinam grass; type: in vivo, Brachiaria decumbens; settings: for B. signalgrass plant response rating: scale of 0 to 10 where 0 is no effect and 10 is complete control
In short: (§1)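 Response is a visual 0-to-10 score relative to untreated plants, where 0 means no effect and 10 means complete control, taken twelve to sixteen days after application. Treatments went onto soil at planting and onto foliage of 1- to 4-leaf plants, using a surfactant-containing non-phytotoxic solvent.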

purple nutsedge = assay: Test B pre/postemergence purple nutsedge; type: in vivo, Cyperus rotundus; settings: for Nutsedge plant response rating: scale of 0 to 10 where 0 is no effect and 10 is complete control
In short: as §1

bamyardgrass = assay: Test B flood test barnyardgrass; type: in vivo, Echinochloa crus-galli
In short: (§2)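 Plants were grown to the 2-leaf stage before treatment with test chemical, then held in a greenhouse for twelve to sixteen days. Injury was visually rated against untreated controls on a 0–10 scale, where 0 is no effect and 10 is complete control.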

cocklebur = assay: Test B pre/postemergence cocklebur; type: in vivo, Xanthium strumarium; settings: for Cocklebur plant response rating: scale of 0 to 10 where 0 is no effect and 10 is complete control
In short: as §1

rape = assay: Test B pre/postemergence rape; type: in vivo, Brassica napus; settings: for Rape plant response rating: scale of 0 to 10 where 0 is no effect and 10 is complete control
In short: as §1

wheat = assay: Test B pre/postemergence wheat; type: in vivo, Triticum aestivum; settings: for Wheat plant response rating: scale of 0 to 10 where 0 is no effect and 10 is complete control
In short: as §1

corn = assay: Test B pre/postemergence corn; type: in vivo, Zea mays; settings: for Corn plant response rating: scale of 0 to 10 where 0 is no effect and 10 is complete control
In short: as §1

bedstraw = assay: Test B pre/postemergence bedstraw; type: in vivo, Galium aparine
In short: as §1

morningglory = assay: Test B pre/postemergence morningglory; type: in vivo, Ipomoea hederacea; settings: for Morningglory plant response rating: scale of 0 to 10 where 0 is no effect and 10 is complete control
In short: as §1

blackgrass = assay: Test B pre/postemergence blackgrass; type: in vivo, Alopecurus myosuroides; settings: for Blackgrass plant response rating: scale of 0 to 10 where 0 is no effect and 10 is complete control
In short: as §1

pigweed = assay: Test B pre/postemergence pigweed; type: in vivo, Amaranthus retroflexus; settings: for Redroot pigweed plant response rating: scale of 0 to 10 where 0 is no effect and 10 is complete control
In short: as §1

rice = assay: Test B flood test rice; type: in vivo, Oryza sativa
In short: as §2

duck salad = assay: Test B flood test duck salad; type: in vivo, Heteranthera limosa
In short: as §2

wild oat = assay: Test B pre/postemergence wild oat; type: in vivo, Avena fatua; settings: for Wild oats plant response rating: scale of 0 to 10 where 0 is no effect and 10 is complete control
In short: as §1

smallflower flatsedge = assay: Test B flood test smallflower flatsedge; type: in vivo, Cyperus difformis
In short: as §2

velvetleaf = assay: Test B pre/postemergence velvetleaf; type: in vivo, Abutilon theophrasti; settings: for Velvetleaf plant response rating: scale of 0 to 10 where 0 is no effect and 10 is complete control
In short: as §1

[1] = Postemergence, Rate 125 g/ha, scale 0 to 10, 0 is no effect, 10 is complete control
[2] = Postemergence, Rate 250 g/ha, scale 0 to 10, 0 is no effect, 10 is complete control
[3] = Preemergence, Rate 62 g/ha, scale 0 to 10 (0 no effect, 10 complete control)
[4] = Rate 500 g/ha, Postemergence, scale 0 to 10, 0 no effect, 10 complete control
[5] = Rate 62 g/ha, flood test species, Pre-emergence, visual evaluation after twelve to sixteen days
[6] = Rate 125 g/ha, under heading Pre-emergence, flood test species, visual evaluation after twelve to sixteen days
[7] = Rate 250 g/ha, Pre-emergence, flood-test species, scale 0 to 10, 0 is no effect, 10 is complete control
[8] = Rate 500 g/ha, Pre-emergence, flood test species, scale 0 to 10 (0 no effect, 10 complete control)

CC(C)N(C(=O)n1oc(=O)n(N2CCOCC2)c1=O)c1ccc(F)cc1 [Compound 385]
Plant response rating, B. signalgrass (surinam grass; [1]): 3 | Plant response rating, B. signalgrass (surinam grass; [2]): 6 | Plant response rating, B. signalgrass (surinam grass; [3]): 0 | B. signalgrass plant response rating (0 to 10 scale, 0 is no effect, 10 is complete control) (surinam grass; Preemergence, Rate 125 g/ha): 0 | B. signalgrass plant response rating (surinam grass; Preemergence, Rate 250 g/ha): 7 | B. signalgrass plant response rating (surinam grass; Preemergence, Rate 500 g/ha): 9 | B. signalgrass plant response rating (surinam grass; Rate 62 g/ha, Postemergence): 0 | Plant response rating, B. signalgrass (surinam grass; [4]): 8 | Plant response rating, Nutsedge (purple nutsedge; [1]): 0 | Plant response rating, Nutsedge (purple nutsedge; [2]): 0 | Plant response rating, Nutsedge (purple nutsedge; [3]): 0 | Nutsedge plant response rating (0 to 10 scale) (purple nutsedge; Preemergence, Rate 125 g/ha): 0 | Nutsedge plant response rating (purple nutsedge; Preemergence, Rate 250 g/ha): 0 | Nutsedge plant response rating (purple nutsedge; Preemergence, Rate 500 g/ha): 0 | Nutsedge plant response rating (purple nutsedge; Rate 62 g/ha, Postemergence): 0 | Plant response rating, Nutsedge (purple nutsedge; [4]): 0 | Plant response rating, Barnyardgrass (0 to 10 scale, 0 is no effect, 10 is complete control) (bamyardgrass; [5]): 0 | Barnyardgrass plant response rating (0 to 10 scale, 0 is no effect, 10 is complete control) (bamyardgrass; [6]): 0 | Barnyardgrass plant response rating (bamyardgrass; [7]): 0 | Barnyardgrass plant response rating (bamyardgrass; [8]): 0 | Plant response rating, Cocklebur (cocklebur; [1]): 0 | Plant response rating, Cocklebur (cocklebur; [2]): 0 | Plant response rating, Cocklebur (cocklebur; [3]): 0 | Cocklebur plant response rating (0 to 10 scale) (cocklebur; Preemergence, Rate 125 g/ha): 0 | Cocklebur plant response rating (cocklebur; Preemergence, Rate 250 g/ha): 0 | Cocklebur plant response rating (cocklebur; Preemergence, Rate 500 g/ha): 0 | Cocklebur plant response rating (cocklebur; Rate 62 g/ha, Postemergence): 0 | Plant response rating, Cocklebur (cocklebur; [4]): 0 | Plant response rating, Rape (rape; [1]): 0 | Plant response rating, Rape (rape; [2]): 0 | Plant response rating, Rape (rape; [3]): 0 | Rape plant response rating (0 to 10 scale) (rape; Preemergence, Rate 125 g/ha): 0 | Rape plant response rating (rape; Preemergence, Rate 250 g/ha): 0 | Rape plant response rating (rape; Preemergence, Rate 500 g/ha): 4 | Rape plant response rating (rape; Rate 62 g/ha, Postemergence): 0 | Plant response rating, Rape (rape; [4]): 0 | Plant response rating, Wheat (wheat; [1]): 0 | Plant response rating, Wheat (wheat; [2]): 0 | Plant response rating, Wheat (wheat; [3]): 0 | Wheat plant response rating (0 to 10 scale) (wheat; Preemergence, Rate 125 g/ha): 0 | Wheat plant response rating (wheat; Preemergence, Rate 250 g/ha): 3 | Wheat plant response rating (wheat; Preemergence, Rate 500 g/ha): 8 | Wheat plant response rating (wheat; Rate 62 g/ha, Postemergence): 0 | Plant response rating, Wheat (wheat; [4]): 5 | Plant response rating, Corn (corn; [1]): 0 | Plant response rating, Corn (corn; [2]): 0 | Plant response rating, Corn (corn; [3]): 0 | Corn plant response rating (0 to 10 scale) (corn; Preemergence, Rate 125 g/ha): 0 | Corn plant response rating (corn; Preemergence, Rate 250 g/ha): 0 | Corn plant response rating (corn; Preemergence, Rate 500 g/ha): 0 | Corn plant response rating (corn; Rate 62 g/ha, Postemergence): 0 | Plant response rating, Corn (corn; [4]): 0 | Plant response rating, Bedstraw (bedstraw; [2]): 0 | Plant response rating, Bedstraw (bedstraw; [3]): 0 | Plant response rating, Bedstraw (bedstraw; [4]): 3 | Plant response rating, Morningglory (morningglory; [1]): 1 | Plant response rating, Morningglory (morningglory; [2]): 2 | Plant response rating, Morningglory (morningglory; [3]): 0 | Morningglory plant response rating (0 to 10 scale) (morningglory; Preemergence, Rate 125 g/ha): 0 | Morningglory plant response rating (morningglory; Preemergence, Rate 250 g/ha): 0 | Morningglory plant response rating (morningglory; Preemergence, Rate 500 g/ha): 2 | Morningglory plant response rating (morningglory; Rate 62 g/ha, Postemergence): 1 | Plant response rating, Morningglory (morningglory; [4]): 5 | Plant response rating, Blackgrass (blackgrass; [1]): 0 | Plant response rating, Blackgrass (blackgrass; [2]): 2 | Plant response rating, Blackgrass (blackgrass; [3]): 0 | Blackgrass plant response rating (0 to 10 scale) (blackgrass; Preemergence, Rate 125 g/ha): 0 | Blackgrass plant response rating (blackgrass; Preemergence, Rate 250 g/ha): 6 | Blackgrass plant response rating (blackgrass; Preemergence, Rate 500 g/ha): 10 | Blackgrass plant response rating (blackgrass; Rate 62 g/ha, Postemergence): 0 | Plant response rating, Blackgrass (blackgrass; [4]): 8 | Plant response rating, Redroot pigweed (pigweed; [1]): 0 | Plant response rating, Redroot pigweed (pigweed; [2]): 0 | Plant response rating, Redroot pigweed (pigweed; [3]): 2 | Redroot pigweed plant response rating (0 to 10 scale) (pigweed; Preemergence, Rate 125 g/ha): 7 | Redroot pigweed plant response rating (pigweed; Preemergence, Rate 250 g/ha): 7 | Redroot pigweed plant response rating (pigweed; Preemergence, Rate 500 g/ha): 10 | Redroot pigweed plant response rating (pigweed; Rate 62 g/ha, Postemergence): 0 | Plant response rating, Redroot pigweed (pigweed; [4]): 0 | Plant response rating, Rice (0 to 10 scale, 0 is no effect, 10 is complete control) (rice; [5]): 0 | Rice plant response rating (0 to 10 scale, 0 is no effect, 10 is complete control) (rice; [6]): 0 | Rice plant response rating (rice; [7]): 0 | Rice plant response rating (rice; [8]): 0 | Plant response rating, Ducksalad (0 to 10 scale, 0 is no effect, 10 is complete control) (duck salad; [5]): 0 | Ducksalad plant response rating (0 to 10 scale, 0 is no effect, 10 is complete control) (duck salad; [6]): 0 | Ducksalad plant response rating (duck salad; [7]): 0 | Ducksalad plant response rating (duck salad; [8]): 0 | Plant response rating, Wild oats (wild oat; [1]): 0 | Plant response rating, Wild oats (wild oat; [2]): 2 | Plant response rating, Wild oats (wild oat; [3]): 0 | Wild oats plant response rating (0 to 10 scale) (wild oat; Preemergence, Rate 125 g/ha): 2 | Wild oats plant response rating (wild oat; Preemergence, Rate 250 g/ha): 7 | Wild oats plant response rating (wild oat; Preemergence, Rate 500 g/ha): 10 | Wild oats plant response rating (wild oat; Rate 62 g/ha, Postemergence): 0 | Plant response rating, Wild oats (wild oat; [4]): 3 | Plant response rating, S. Flatsedge (0 to 10 scale, 0 is no effect, 10 is complete control) (smallflower flatsedge; [5]): 0 | S. Flatsedge plant response rating (0 to 10 scale, 0 is no effect, 10 is complete control) (smallflower flatsedge; [6]): 0 | S. Flatsedge plant response rating (smallflower flatsedge; [7]): 0 | S. Flatsedge plant response rating (smallflower flatsedge; [8]): 0 | Plant response rating, Velvetleaf (velvetleaf; [1]): 0 | Plant response rating, Velvetleaf (velvetleaf; [2]): 0 | Plant response rating, Velvetleaf (velvetleaf; [3]): 0 | Velvetleaf plant response rating (0 to 10 scale) (velvetleaf; Preemergence, Rate 125 g/ha): 0 | Velvetleaf plant response rating (velvetleaf; Preemergence, Rate 250 g/ha): 3 | Velvetleaf plant response rating (velvetleaf; Preemergence, Rate 500 g/ha): 3 | Velvetleaf plant response rating (velvetleaf; Rate 62 g/ha, Postemergence): 0 | Plant response rating, Velvetleaf (velvetleaf; [4]): 0

— US6737383B1, “Herbicidal oxadiazolidines” (priority 1999, dated 2004)
